In patent publication US8110703B2, “Retinoid derivative and pharmaceutical composition and use thereof” (Anhui Medical University, priority 2008, dated 2012):
Marks after values point to notes of the source that are not given here.

How the values were obtained:
[1] = tested on: human acute promyelocytic leukaemia; conditions: cited from earlier work
HepG2 cells [2] = assay: Cell cycle and apoptosis by flow cytometry, HepG2; format: cell-based; conditions: HepG2, flow cytometry
liver cancer HepG2 cells = assay: MTT cell growth and proliferation experiment, HepG2; format: cell-based; parameters: key to Inhibition Rate: (control OD570 − test OD570)/control OD570, as fraction; conditions: for Inhibition Rate: fraction
Procedure: (§1) 1.1 Reagents 12 retinoic acid derivatives with the final concentrations of 1 ug/ml, 5 ug/ml and 10 ug/ml are synthesized by the Pharmaceutical College of Anhui Medical University using DMSO and anhydrous ethanol, separately packaged for storage at −20° C. and kept out of the light when used, and the final concentration of DMSO is less than 0.1%. MTT is purchased from Sigma Corp. The Coulter DNA detection kit is presented by the Central Lab of Anhui Provincial Hospital. AFP and γ-GT are provided by the Clinical Lab of No. 105 Hospital of PLA. Apoptosis-Hoechst staining kit is purchased from Beyotime Company.
(§2) 1.2 Cell Culture A549, and HpeG2 cells are stored by our lab. Cell growth condition: DMEM (from GIBICO Company) culture solution is added with 10% of calf serum (purchased from the Hangzhou Sijiqing Biological Engineering Material Co., Ltd.) to culture in a cell culture incubator (37° C., 5% CO2) with saturated humidity.
(§3) 1.3 Cell Growth and Proliferation Experiments MTT process is used. Cells in the logarithmic phase are picked and seeded on a 96-hole culture board with a cell concentration of 5×10^7/L. Each hole of the board is 200 ul. The next day after the adherence, the original solution is discarded, and the culture solution is added. The cells are divided into 1 ug/ml retinoic acid derivative groups, 5 ug/ml retinoic acid derivative groups, 10 ug/ml retinoic acid derivative groups, blank control groups, cell control groups, solvent control groups (1‰ DMSO and anhydrous ethanol) (17 in total) according to the concentrations thereof, incubated for 3d, added with MTT (5 g/L) of 20 ul/hole for incubation at 37° C. for 4 h. The original solution is carefully discarded and dried, and DMSO of 20 ul/hole is added to dissolve crystals, followed by vibrating for 10 min and determining the OD value at 570 nm. Each concentration is corresponding to 5 holes, and each group calculates the average of 3 experiments to calculate the inhibition rate to the cell growth according to the optical density (OD) average of each hole in each group and the following equation: inhibition rate %=(control hole OD570−experimental hole OD570)/control hole OD5700*100%. The process above is repeated for three times. The second experiment takes the maximum concentration (10 […]) for culture respectively for 1, 2, 3 and 7 days and repeat for three times.

A549 lung cancer cells = assay: MTT cell growth and proliferation experiment, A549; format: cell-based; parameters: key to Inhibition Rate: (control OD570 − test OD570)/control OD570, as fraction; conditions: A549, MTT time gradient, 10 ug/ml; for Inhibition Rate: fraction
Procedure: as §1, §2, §3

HepG2 cells [3] = assay: γ-GT specific activity of HepG2 cells; format: cell-based; conditions: DMSO
HepG2 cells [4] = assay: AFP secretory volume of HepG2 cells; format: cell-based; conditions: for effects on AFP secretory volume (statistics, in words): HepG2, compared with the control groups, P less than 0.05; for AFP: HepG2 cells, DMSO
A549 cells [5] = assay: Cell cycle and apoptosis by flow cytometry, A549; format: cell-based; conditions: A549, 10 μg/ml, 3 days, PI flow cytometry
Procedure: 1.4 Detection of Cell Cycle and Apoptosis by Flow Cytometry A549 cells in the logarithmic phase are collected, regulated with the concentrations thereof to 8×10^7/L, inoculated in a 6-hole board, cultured in an incubator (37° C. and 5% CO2). After the cells are adhered, the culture solution is discarded, and a culture solution having drugs with the corresponding concentrations is added and divided into 10 μg/ml drug groups, 10 μg/ml fenretinide groups, cell control groups, solvent control groups (1‰ DMSO and anhydrous ethanol) (11 in total). After 3 days, each group of cells is normally digested, collected, blown into single cell suspension, washed by cold PBS twice, and re-suspend by 10 μl PBS. Fixing and member breaking agents and a PI staining solution are added according to the Coulter DNA detection kit and reacted with one another at the room temperature and out of light for 30 min for machine detection. Each sample detects 10000 cells and repeats for three times, and the data are analyzed by Analysis software for the ratio during the G0-G1, S and G2-M periods and the ratio of apoptotic cells.

A549 cells [6] = assay: Differentiation index: CEA secretory volume of A549 cells; format: cell-based; conditions: A549 culture supernatant, 10 ug/ml, 3 d, DMSO
Procedure: 1.6 Detection of Differentiation Index The cultured A549 cells are randomly divided into 6 10 μg/ml drug groups, cell control groups, solvent control groups (DMSO and ethanol) and 10 μg/ml fenretinide control groups (11 in total). The control groups and drug groups are cultured for 3 days to collect respective 3 tubes of cell culture solutions which are centrifugated at a speed of 4000 r/min for 5 min to take the supernatant and detect the CEA content of the kit by using enzyme kinetics and CEA detection.

K562 cells = assay: Cell cycle analysis by flow cytometer, K562; format: cell-based; parameters: S %: dose or concentration left out as unconfirmed; conditions: 72 h
Procedure: (§4) Retinoic acid derivatives and fenretinide are prepared as a storage solution of 10 mg/mL by anhydrous ethanol and stored at […] and kept out of light.
(§5) NB4 cells and K562 cells are inoculated with an initial concentration of 2*10^5/ml in the RPMI1640 culture solution having 10% of calf serum (FBS), 100 u/ml of penicillin, 100 Lg/ml of streptomycin and 2 mmol/L of glutamine for suspension culture (37° C., 5% CO2). Change the solution every 2-3 days.
(§6) For the cells above acted by the retinoic acid derivatives and fenretinide ([…]) for 72 h, about 10^6 of them are collected, washed by PBS twice, fixed by 70% of cold ethanol over 24 h, washed by PBS twice, added with 5 ug/ml of propidium iodide for staining and detected by a flow cytometer from which the data are analyzed and processed by the multi-cycle software.

NB4 cells = assay: Cell cycle analysis by flow cytometer, NB4; format: cell-based; parameters: S %: dose or concentration left out as unconfirmed; conditions: 72 h
Procedure: as §4, §5, §6

[7] = HepG2, MTT OD 570 nm, 1 ug/ml, 3 d, solvent not given
[8] = HepG2, MTT OD 570 nm, 5 ug/ml, 3 d, solvent not given
[9] = HepG2, MTT OD 570 nm, 10 ug/ml, 3 d, solvent not given
[10] = HepG2, MTT time gradient, 10 ug/ml, 1 d
[11] = HepG2, MTT time gradient, 10 ug/ml, 2 d
[12] = HepG2, MTT time gradient, 10 ug/ml, 3 d
[13] = HepG2, MTT time gradient, 10 ug/ml, 7 d
[14] = HepG2, MTT, 1 ug/ml, 3 d, solvent not given
[15] = HepG2, MTT, 5 ug/ml, 3 d, solvent not given
[16] = HepG2, MTT, 10 ug/ml, 3 d, solvent not given
[17] = HepG2, Table 5 repeat MTT, 10 ug/ml, 3 days, DMSO

## CC1=C(/C=C/C(C)=C/C=C/C(C)=C/C(=O)O)C(C)(C)CCC1 [ATRA, all-trans retinoic acid]
[1]; during the treatment of APL, reported abroad
  incidence rate of increased leukocyte count: about 30%
[1]; human acute promyelocytic leukaemia, 5-year clinic summary
  complete remission rate: 86%

## CC1=C(/C=C/C(C)=C/C=C/C(C)=C/C(=O)Nc2ccc(C(F)(F)F)cc2)C(C)(C)CCC1 [Example 3a-01, (4-trifluoromethylphenyl)-(all-trans)-3,7-dimethyl-9-(2,6,6-trimethyl-1-cyclohexen-1-yl)-2,4,6,8-nonatetraenoic acid amide]
HepG2 cells [2]
  Apoptosis Rate (%): 16.5* %
  G0-G1 (%): 56.3%
  G2-M (%): 4.14%
  S %: 24.8%
Liver cancer HepG2 cells; [7]
  OD Value (x ± s): 1.13 ± 0.16
Liver cancer HepG2 cells; [8]
  OD Value (x ± s): 1.13 ± 0.45
Liver cancer HepG2 cells; [9]
  OD Value (x ± s): 0.86 ± 0.13
Liver cancer HepG2 cells; [10]
  OD Value (x ± s): 1.52 ± 0.13
  Inhibition Rate: 0.12
Liver cancer HepG2 cells; [11]
  OD Value (x ± s): 0.71 ± 0.02
  Inhibition Rate: 0.42
Liver cancer HepG2 cells; [12]
  OD Value (x ± s): 0.77 ± 0.03
  Inhibition Rate: 0.54
Liver cancer HepG2 cells; [13]
  OD Value (x ± s): 0.30 ± 0.08
  Inhibition Rate: 0.77
Liver cancer HepG2 cells; [14]
  Inhibition Rate: 0.33
Liver cancer HepG2 cells; [15]
  Inhibition Rate: 0.33
Liver cancer HepG2 cells; [16]
  Inhibition Rate: 0.49
Liver cancer HepG2 cells; [17]
  OD Value (x ± s): 0.978 ± 0.072
  Inhibition Rate: 0.548*
A549 lung cancer cells; 1 d
  OD Value (x ± s): 0.680 ± 0.055
  Inhibition Rate: 0.258
A549 lung cancer cells; 2 d
  OD Value (x ± s): 1.042 ± 0.046
  Inhibition Rate: 0.288
A549 lung cancer cells; 3 d
  OD Value (x ± s): 0.623 ± 0.006
  Inhibition Rate: 0.328
A549 lung cancer cells; 7 d
  OD Value (x ± s): 1.325 ± 0.028
  Inhibition Rate: 0.361
HepG2 cells [3]
  γ-GT: 52.3 ± 1.5 U/L
HepG2 cells [4]
  effects on AFP secretory volume (statistics, in words): meaningful in statistics
  AFP: 13.6* ug/L
A549 cells [5]
  Apoptosis Rate (%): 17.6%
  G0-G1 (%): 55.6%
  G2-M (%): 2.41%
  S %: 24.9%
A549 cells [6]
  CEA: 2.9 µg/L

## CC1=C(/C=C/C(C)=C/C=C/C(C)=C/C(=O)Nc2ccc(OC(F)(F)F)cc2)C(C)(C)CCC1 [Example 6a-01, (4-trifluoromethoxyphenyl)-(all-trans)-3,7-dimethyl-9-(2,6,6-trimethyl-1-cyclohexen-1-yl)-2,4,6,8-nonatetraenoic acid amide]
HepG2 cells [2]
  Apoptosis Rate (%): 11.1%
  G0-G1 (%): 57.4%
  G2-M (%): 5.30%
  S %: 26.7%
Liver cancer HepG2 cells; [7]
  OD Value (x ± s): 0.97 ± 0.29
Liver cancer HepG2 cells; [8]
  OD Value (x ± s): 0.89 ± 0.14
Liver cancer HepG2 cells; [9]
  OD Value (x ± s): 0.89 ± 0.30
Liver cancer HepG2 cells; [10]
  OD Value (x ± s): 1.28 ± 0.07
  Inhibition Rate: 0.06
Liver cancer HepG2 cells; [11]
  OD Value (x ± s): 1.55 ± 0.11
  Inhibition Rate: 0.10
Liver cancer HepG2 cells; [12]
  OD Value (x ± s): 1.24 ± 0.18
  Inhibition Rate: 0.26
Liver cancer HepG2 cells; [13]
  OD Value (x ± s): 0.62 ± 0.13
  Inhibition Rate: 0.50
Liver cancer HepG2 cells; [14]
  Inhibition Rate: 0.42
Liver cancer HepG2 cells; [15]
  Inhibition Rate: 0.47
Liver cancer HepG2 cells; [16]
  Inhibition Rate: 0.47
Liver cancer HepG2 cells; [17]
  OD Value (x ± s): 1.163 ± 0.102
  Inhibition Rate: 0.463*
A549 lung cancer cells; 1 d
  OD Value (x ± s): 0.646 ± 0.019
  Inhibition Rate: 0.296
A549 lung cancer cells; 2 d
  OD Value (x ± s): 0.909 ± 0.065
  Inhibition Rate: 0.378
A549 lung cancer cells; 3 d
  OD Value (x ± s): 0.567 ± 0.057
  Inhibition Rate: 0.389
A549 lung cancer cells; 7 d
  OD Value (x ± s): 1.243 ± 0.024
  Inhibition Rate: 0.401
K562 cells
  G1 %: 34.2%
  G2 %: 9.4%
  S %: 56.4%
HepG2 cells [3]
  γ-GT: 58.0 ± 1.5 U/L
NB4 cells
  G1 %: 38.24%
  G2 %: 2.70%
  S %: 59.06%
HepG2 cells [4]
  effects on AFP secretory volume (statistics, in words): meaningful in statistics
  AFP: 13.6* ug/L
A549 cells [5]
  Apoptosis Rate (%): 30.5%
  G0-G1 (%): 40.1%
  G2-M (%): 2.34%
  S %: 27.9%
A549 cells [6]
  CEA: 2.9 µg/L
